≈ marks a conversion by molar mass, not a printed value.

This assay relates to Vaccinia virus. In words: Antiviral activity against Vaccinia virus infected in primary rabbit kidney cells assessed as inhibition of virus-induced cytopathogenicity treated immediately after virus adsorption measured 2 days after virus infection. As to conditions: Orthopoxvirus vaccinia, 48 h. The class given is functional. (Damage to the host cells serves as the signal in cytopathic effect assays.)
Regarding `CO[C@@H]1[C@H](O)[C@@H](CO)O[C@H]1n1cnc(C(N)=O)n1`, the MIC50 was above 200 µg/mL.
The result for `CO[C@H]1[C@@H](O)[C@H](n2cnc(C(N)=O)n2)O[C@@H]1CO` reads above 200 µg/mL; that for `NC(=O)c1ncn([C@@H]2O[C@H](CO)[C@@H](O)[C@H]2O)n1` [RIBAVIRIN], 20 µg/mL (≈ 81.9 µM).
